Measurements reported in PubChem BioAssay AID248 (DTP/NCI, 2004).
“And” between values parts separate entries of the source, which are not always exact repeats. Identical values can stand only once. Toxic doses and inconclusive results are not listed. Rule as the data show it: active = T/C of 150% or more; inactive = T/C below 125%.

System: L1210 leukemia ip in BDF1 mice, survival T/C
Assay: NCI In Vivo Anticancer Drug Screen. Data for tumor model L1210 Leukemia (intraperitoneal) in B6D2F1 (BDF1) mice
Conditions: endpoint: mean survival time, higher = longer survival
Method in brief: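 Read-out is survival time, reported as the treated-group measurement over the vehicle-control measurement.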

[1] = dose: 100.0 mg/kg/injection, schedule: Q04DX003 (ip), vehicle: saline
[2] = dose: 200.0 mg/kg/injection, schedule: Q04DX003 (ip), vehicle: saline
[3] = dose: 400.0 mg/kg/injection, schedule: Q04DX003 (ip), vehicle: saline
[4] = dose: 100.0 mg/kg/injection, schedule: Q01DX009 (ip), vehicle: saline with Tween-80
[5] = dose: 200.0 mg/kg/injection, schedule: Q01DX009 (ip), vehicle: saline with Tween-80
[6] = dose: 400.0 mg/kg/injection, schedule: Q01DX009 (ip), vehicle: saline with Tween-80
[7] = dose: 200.0 mg/kg/injection, schedule: Q04DX003 (ip), vehicle: saline with Tween-80
[8] = dose: 400.0 mg/kg/injection, schedule: Q04DX003 (ip), vehicle: saline with Tween-80
[9] = dose: 100.0 mg/kg/injection, schedule: Q04DX003 (ip), vehicle: Klucel (hydroxypropylcellulose) (HPC)
[10] = dose: 200.0 mg/kg/injection, schedule: Q04DX003 (ip), vehicle: Klucel (hydroxypropylcellulose) (HPC)
[11] = dose: 400.0 mg/kg/injection, schedule: Q04DX003 (ip), vehicle: Klucel (hydroxypropylcellulose) (HPC)
[12] = dose: 100.0 mg/kg/injection, schedule: Q01DX009 (ip), vehicle: carboxymethylcellulose (CMC)
[13] = dose: 100.0 mg/kg/injection, schedule: Q04DX002 (ip), vehicle: carboxymethylcellulose (CMC)
[14] = dose: 100.0 mg/kg/injection, schedule: Q04DX003 (ip), vehicle: carboxymethylcellulose (CMC)
[15] = dose: 200.0 mg/kg/injection, schedule: Q01DX009 (ip), vehicle: carboxymethylcellulose (CMC)
[16] = dose: 200.0 mg/kg/injection, schedule: Q04DX002 (ip), vehicle: carboxymethylcellulose (CMC)
[17] = dose: 200.0 mg/kg/injection, schedule: Q04DX003 (ip), vehicle: carboxymethylcellulose (CMC)
[18] = dose: 400.0 mg/kg/injection, schedule: Q01DX009 (ip), vehicle: carboxymethylcellulose (CMC)
[19] = dose: 400.0 mg/kg/injection, schedule: Q04DX002 (ip), vehicle: carboxymethylcellulose (CMC)
[20] = dose: 400.0 mg/kg/injection, schedule: Q04DX003 (ip), vehicle: carboxymethylcellulose (CMC)
[21] = dose: 100.0 mg/kg/injection, schedule: Q01DX001 (ip), vehicle: saline
[22] = dose: 200.0 mg/kg/injection, schedule: Q01DX001 (ip), vehicle: saline
[23] = dose: 400.0 mg/kg/injection, schedule: Q01DX001 (ip), vehicle: saline

Measured: T/C

OCC1COc2ccccc2O1 (configuration not stated)
inactive: [1] 101 % of control | [2] 106 % of control | [3] 103 % of control

COc1ccc(C=Nc2ccc3c(c2)OCO3)cc1Br
inactive: [4] 88 % of control | dose: 100.0 mg/kg/injection, schedule: Q04DX002 (ip), vehicle: saline with Tween-80 108 % of control | [5] 101 % of control | dose: 200.0 mg/kg/injection, schedule: Q04DX002 (ip), vehicle: saline with Tween-80 102 % of control | [6] 103 % of control | dose: 400.0 mg/kg/injection, schedule: Q04DX002 (ip), vehicle: saline with Tween-80 97 % of control

CC(O)CN1CC(C)N(CC(C)O)CC1C (configuration not stated)
inactive: dose: 100.0 mg/kg/injection, schedule: Q01DX009 (ip), vehicle: saline 104 % of control | [1] 100 % of control | dose: 200.0 mg/kg/injection, schedule: Q01DX009 (ip), vehicle: saline 102 % of control | [2] 86 % of control | dose: 400.0 mg/kg/injection, schedule: Q01DX009 (ip), vehicle: saline 98 % of control | [3] 88 % of control

CCCCCCCCCCCCCCCSc1ccc(Br)cc1
inactive: dose: 100.0 mg/kg/injection, schedule: Q04DX003 (ip), vehicle: saline with Tween-80 97 % of control | [7] 102 % of control | [8] 94 % of control

O=[N+]([O-])c1cccc(S(=O)(=O)NNc2c(Cl)cc(Cl)cc2Cl)c1
inactive: [9] 94 % of control | [10] 93 % of control | [11] 96 % of control

O=S1(=O)CC=CC1
inactive: [1] 103 % of control | [2] 97 % of control | [3] 97 % of control

O=S(=O)(ON=C(c1ccc(Cl)cc1)c1ccc(Cl)cc1)c1ccccc1
inactive: [12] 98 % of control | [13] 101 % of control and 92 % of control | [14] 106 % of control | [15] 95 % of control and 92 % of control | [16] 102 % of control and 111 % of control | [17] 93 % of control | [18] 95 % of control and 101 % of control | [19] 95 % of control and 101 % of control | [20] 93 % of control

Cc1ccc([N+](=O)[O-])cc1NC(=O)Nc1ccccc1F
inactive: dose: 100.0 mg/kg/injection, schedule: Q01DX009 (ip), vehicle: Klucel (hydroxypropylcellulose) (HPC) 89 % of control | dose: 200.0 mg/kg/injection, schedule: Q01DX009 (ip), vehicle: Klucel (hydroxypropylcellulose) (HPC) 92 % of control | dose: 400.0 mg/kg/injection, schedule: Q01DX009 (ip), vehicle: Klucel (hydroxypropylcellulose) (HPC) 87 % of control

O=C(OCC1OC(OC2(COC(=O)c3ccccc3)OC(COC(=O)c3ccccc3)C(OC(=O)c3ccccc3)C2OC(=O)c2ccccc2)C(OC(=O)c2ccccc2)C(OC(=O)c2ccccc2)C1OC(=O)c1ccccc1)c1ccccc1 (configuration not stated)
inactive: [4] 95 % of control | [5] 92 % of control | [6] 92 % of control

CCCCCCCCCCCCCCCCCBr
inactive: dose: 50.0 mg/kg/injection, schedule: Q01DX001 (ip), vehicle: carboxymethylcellulose (CMC) 110 % of control | dose: 100.0 mg/kg/injection, schedule: Q01DX001 (ip), vehicle: carboxymethylcellulose (CMC) 95 % of control | dose: 200.0 mg/kg/injection, schedule: Q01DX001 (ip), vehicle: carboxymethylcellulose (CMC) 93 % of control | dose: 400.0 mg/kg/injection, schedule: Q01DX001 (ip), vehicle: carboxymethylcellulose (CMC) 95 % of control

Nc1ccccc1SC1CC(=O)N(c2ccccc2)C1=O (configuration not stated)
inactive: dose: 100.0 mg/kg/injection, schedule: Q01DX009 (ip), vehicle: other 95 % of control | [1] 94 % of control | dose: 200.0 mg/kg/injection, schedule: Q01DX009 (ip), vehicle: other 92 % of control | [2] 89 % of control | dose: 400.0 mg/kg/injection, schedule: Q01DX009 (ip), vehicle: other 92 % of control | [3] 91 % of control

S=c1[nH]c(Cc2ccccc2)cs1
inactive: dose: 100.0 mg/kg/injection, schedule: Q01DX001 (sc), vehicle: carboxymethylcellulose (CMC) 103 % of control | dose: 200.0 mg/kg/injection, schedule: Q01DX001 (sc), vehicle: carboxymethylcellulose (CMC) 105 % of control | dose: 400.0 mg/kg/injection, schedule: Q01DX001 (sc), vehicle: carboxymethylcellulose (CMC) 103 % of control

Clc1ccc(NC2=NCCO2)cc1Cl
inactive: dose: 44.0 mg/kg/injection, schedule: Q04DX003 (ip), vehicle: saline with Tween-80 101 % of control | dose: 66.0 mg/kg/injection, schedule: Q04DX003 (ip), vehicle: saline with Tween-80 103 % of control | dose: 150.0 mg/kg/injection, schedule: Q04DX003 (ip), vehicle: saline with Tween-80 93 % of control | [7] 92 % of control | [8] 94 % of control

Nc1ncnc2c1nc1n2C2OC(CO)C(O)C2O1 (configuration not stated)
inactive: [21] 111 % of control | [22] 109 % of control | [23] 111 % of control

OCc1ccc(O)cn1
inactive: [21] 97 % of control | [22] 87 % of control | [23] 94 % of control

C1COB(OCCNCCOB2OCCNCCO2)OCCN1
inactive: [12] 100 % of control | [13] 98 % of control and 101 % of control | [14] 100 % of control | [15] 97 % of control and 106 % of control | [16] 95 % of control and 103 % of control | [17] 104 % of control | [18] 100 % of control | [19] 103 % of control and 106 % of control | [20] 100 % of control

COc1cccc(NC(=S)NC2CCCCCCCCCCC2)c1
inactive: dose: 100.0 mg/kg/injection, schedule: Q04DX002 (ip), vehicle: gum acacia 94 % of control | dose: 200.0 mg/kg/injection, schedule: Q04DX002 (ip), vehicle: gum acacia 94 % of control | dose: 400.0 mg/kg/injection, schedule: Q04DX002 (ip), vehicle: gum acacia 94 % of control

CCOc1ccc(-n2c(=O)c(N=Nc3ccc(Cl)cc3)c(O)n(-c3ccc(C)cc3)c2=S)cc1
inactive: dose: 100.0 mg/kg/injection, schedule: Q01DX001 (ip), vehicle: Klucel (hydroxypropylcellulose) (HPC) 100 % of control | dose: 200.0 mg/kg/injection, schedule: Q01DX001 (ip), vehicle: Klucel (hydroxypropylcellulose) (HPC) 107 % of control | dose: 400.0 mg/kg/injection, schedule: Q01DX001 (ip), vehicle: Klucel (hydroxypropylcellulose) (HPC) 100 % of control

CCN(CC)CCCNC1=C(Cl)C(=O)c2ccccc2C1=O
inactive: dose: 25.0 mg/kg/injection, schedule: Q01DX009 (ip), vehicle: saline with Tween-80 95 % of control

CC(CO)CCC(O)C(C)C1CCC2C3CCC4CC(O)CCC4(C)C3CCC12C (configuration not stated)
inactive: dose: 6.25 mg/kg/injection, schedule: Q01DX001 (ip), vehicle: saline with Tween-80 91 % of control | dose: 12.5 mg/kg/injection, schedule: Q01DX001 (ip), vehicle: saline with Tween-80 91 % of control | dose: 25.0 mg/kg/injection, schedule: Q01DX001 (ip), vehicle: saline with Tween-80 90 % of control | dose: 100.0 mg/kg/injection, schedule: Q01DX001 (ip), vehicle: saline with Tween-80 92 % of control | dose: 400.0 mg/kg/injection, schedule: Q01DX001 (ip), vehicle: saline with Tween-80 92 % of control

c1ccc(-c2c[nH]c(-c3ccccc3)c2)cc1
inactive: [9] 124 % of control | dose: 200.0 mg/kg/injection, schedule: Q01DX001 (ip), vehicle: steriod suspending solution 103 % of control | [10] 100 % of control | dose: 400.0 mg/kg/injection, schedule: Q01DX001 (ip), vehicle: steriod suspending solution 103 % of control | [11] 94 % of control

CC1(C)COCOC1
inactive: dose: 50.0 mg/kg/injection, schedule: Q01DX009 (ip), vehicle: acetone 95 % of control | dose: 100.0 mg/kg/injection, schedule: Q01DX009 (ip), vehicle: acetone 98 % of control | dose: 200.0 mg/kg/injection, schedule: Q01DX009 (ip), vehicle: acetone 88 % of control
